Measurements published in US20050130989A1, “N-arylheteroaromatic products compositions containing them and use thereof” (Aventis Pharma S. A., priority 2003, published 2005).

Assays:
HCT116 cells = experiment: Inhibition of proliferation of the human colon tumor line HCT116 ([14C]-thymidine incorporation); assay type: cell-based; conditions: Homo sapiens, HCT-116, 48 h, 48 hours at 37° C., read-out: Inhibition of HCT116 proliferation IC 50 (μm)
Protocol: The proliferation of HCT116 cells is evaluated by measuring the incorporation of [^14C]-thymidine in the following manner. The HCT 116 cells (obtained from the ATCC) are cultured in a DMEM medium (Gibco) containing 10% fetal calf serum and antibiotics (1% penicillin, 1% streptomycin). To perform the proliferation test, the cells are inoculated in cytostar 96-well microplates (Amersham), at a rate of 5000 cells per well. [^14C]-thymidine (0.1 μCi/well) and the products to be evaluated are then added. Variable concentrations of products up to 10 μm are used; the DMSO (solvent used to dissolve the products) should not exceed 0.5% in the medium. 48 hours after incubation at 37° C., the radioactivity incorporated into the cells is measured by counting the plate in a TRI-LUX counter (Wallac). The IC50 is defined as the concentration of product that reduces the radioactivity by 50% compared with an untreated control. A product whose IC50 is less than 3 μm is considered cytotoxic.

tubulin = target: T1, tubulin (Sus scrofa, UniProt P02550+P02554); experiment: Evaluation of the inhibition of tubulin polymerization (turbidimetry); assay type: biochemical, pig; conditions: tubulin 10 μm (1 mg/ml), 37° C., turbidity at 350 nm; concentration that inhibits the rate of polymerization by 50%; read-out: Inhibition of tubulin polymerization IC 50 (μm)
T1 construct: Tubulin is purified from pig brain according to published methods; from tissue; host or cells: pig brain
Protocol: Tubulin is purified from pig brain according to published methods (Shelanski et al., 1973, Proc. Natl. Acad. Sci. USA, 70, 765-768. Weingarten et al., 1975, Proc. Natl. Acad. Sci. USA, 72, 1858-1862). Briefly, the brains are ground and centrifuged in an extraction buffer. The tubulin contained in the supernatant of the extract undergoes two successive cycles of polymerization at 37° C. and depolymerization at 4° C., before being separated from the MAPs (Microtubule Associated Proteins) by chromatography on a phosphocellulose P11 column (Whatman). The tubulin thus isolated is more than 95% pure. It is stored in a buffer known as RB/2 30% glycerol, the composition of which is 50 mM MES-NaOH [2-(N-morpholino)ethanesulfonic acid], pH 6.8; 0.25 mM MgCl2; 0.5 mM EGTA; 30% glycerol (v/v), 0.2 mM GTP (guanosine-5′-triphosphate).
The polymerization of tubulin to microtubules is monitored by turbidimetry as follows: the tubulin is adjusted to a concentration of 10 μm (1 mg/ml) in RB/2 30% glycerol buffer to which 1 mM GTP and 6 mM MgCl2 are added. The polymerization is triggered by an increase in temperature from 6° C. to 37° C. in a cuvette with an optical path length of 1 cm, placed in a UVIKON 931 spectrophotometer (Kontron) equipped with a thermostatically maintained cuvette holder. The increase in the turbidity of the solution is monitored at 350 nm.
The products are dissolved at 10 mM in DMSO and added at variable concentrations (0.5 to 10 μm) to the tubulin solution before polymerization. The IC50 value is defined as the concentration of product that inhibits the rate of polymerization by 50%.

T1 sequence (P02550 whole entry): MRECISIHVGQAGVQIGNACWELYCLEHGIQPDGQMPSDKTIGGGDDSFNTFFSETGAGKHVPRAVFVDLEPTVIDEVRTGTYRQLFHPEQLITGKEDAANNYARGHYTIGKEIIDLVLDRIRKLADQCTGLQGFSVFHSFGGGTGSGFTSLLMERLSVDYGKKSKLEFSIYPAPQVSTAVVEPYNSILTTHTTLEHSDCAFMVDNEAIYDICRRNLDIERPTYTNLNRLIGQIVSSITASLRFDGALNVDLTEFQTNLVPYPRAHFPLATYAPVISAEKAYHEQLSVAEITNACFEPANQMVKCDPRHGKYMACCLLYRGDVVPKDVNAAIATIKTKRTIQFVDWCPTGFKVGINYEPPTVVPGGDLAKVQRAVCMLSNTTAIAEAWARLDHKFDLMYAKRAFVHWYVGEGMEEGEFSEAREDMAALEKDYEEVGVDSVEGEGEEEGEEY
T1 sequence (P02554 whole entry): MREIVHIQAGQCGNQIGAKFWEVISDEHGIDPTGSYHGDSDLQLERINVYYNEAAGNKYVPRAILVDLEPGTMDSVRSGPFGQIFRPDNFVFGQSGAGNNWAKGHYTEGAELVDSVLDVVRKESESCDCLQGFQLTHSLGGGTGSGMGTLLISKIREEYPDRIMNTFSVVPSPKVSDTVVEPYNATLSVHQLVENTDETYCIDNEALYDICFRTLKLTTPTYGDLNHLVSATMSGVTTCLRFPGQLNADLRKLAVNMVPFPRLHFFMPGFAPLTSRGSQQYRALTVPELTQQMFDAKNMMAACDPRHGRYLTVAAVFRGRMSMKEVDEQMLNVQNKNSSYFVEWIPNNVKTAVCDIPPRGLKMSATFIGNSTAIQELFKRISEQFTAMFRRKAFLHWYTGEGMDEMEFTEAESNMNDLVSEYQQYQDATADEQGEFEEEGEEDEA

## COc1cccc(-n2nc(C)cc2C(=O)N2CCN(c3ccc(C)c(C)c3)CC2)c1 [3/2]
HCT116 cells
  IC50: 312 nM

## COc1cccc(-n2nc(C)cc2C(=O)N2CCN(c3cccc(C)c3)CC2)c1 [3/3]
tubulin
  IC50: 1800 nM
HCT116 cells
  IC50: 87 nM

## COc1cccc(-n2nc(C)cc2C(=O)N2CCN(c3cc(Cl)ccc3C)CC2)c1 [3/4]
tubulin
  IC50: 1800 nM
HCT116 cells
  IC50: 389 nM

## COc1cccc(-n2nc(C)cc2C(=O)N2CCN(c3cc(Cl)ccc3OC)CC2)c1 [3/5]
tubulin
  IC50: 3000 nM
HCT116 cells
  IC50: 238 nM

## Cc1cc(C(=O)N2CCN(c3ccccc3)CC2)n(-c2ccccc2)n1 [3/6]
tubulin
  IC50: 4500 nM
HCT116 cells
  IC50: 177 nM

## COc1ccccc1N1CCN(C(=O)c2cc(C)nn2-c2ccccc2)CC1 [3/7]
tubulin
  IC50: 5600 nM
HCT116 cells
  IC50: 40 nM

## Cc1cc(C(=O)N2CCN(c3cccc(C(F)(F)F)c3)CC2)n(-c2ccccc2)n1 [3/8]
tubulin
  IC50: 6500 nM
HCT116 cells
  IC50: 841 nM

## Cc1cc(C(=O)N2CCN(c3cccc(C)c3C)CC2)n(-c2ccccc2)n1 [3/9]
tubulin
  IC50: 7000 nM
HCT116 cells
  IC50: 494 nM

## COc1cccc(N2CCN(C(=O)c3cc(C)nn3-c3ccccc3)CC2)c1 [3/10]
tubulin
  IC50: 2000 nM
HCT116 cells
  IC50: 25 nM

## Cc1cccc(N2CCN(C(=O)c3cc(C)nn3-c3ccccc3)CC2)c1 [3/11]
tubulin
  IC50: 3000 nM
HCT116 cells
  IC50: 36 nM

## Cc1cc(C(=O)N2CCN(c3cccc4ccccc34)CC2)n(-c2ccccc2)n1 [3/13]
tubulin
  IC50: 6000 nM
HCT116 cells
  IC50: 466 nM

## Cc1cc(C(=O)N2CCN(c3ccc4c(c3)OCCO4)CC2)n(-c2ccccc2)n1 [3/14]
tubulin
  IC50: 15000 nM
HCT116 cells
  IC50: 352 nM

## COc1cccc(N2CCN(C(=O)c3cc(C)nn3-c3ccccc3F)CC2)c1 [3/15]
tubulin
  IC50: 2000 nM
HCT116 cells
  IC50: 4 nM

## Cc1cccc(N2CCN(C(=O)c3cc(C)nn3-c3ccccc3F)CC2)c1 [3/16]
tubulin
  IC50: 6000 nM
HCT116 cells
  IC50: 224 nM

## Cc1cc(C(=O)N2CCN(c3ccc(C)c(C)c3)CC2)n(-c2cccc(F)c2)n1 [3/17]
tubulin
  IC50: 3500 nM
HCT116 cells
  IC50: 159 nM

## Cc1cc(C(=O)N2CCN(c3cccc(Cl)c3)CC2)n(-c2cccc(F)c2)n1 [3/18]
tubulin
  IC50: 2000 nM
HCT116 cells
  IC50: 28 nM

## Cc1cccc(N2CCN(C(=O)c3cc(C)nn3-c3cccc(F)c3)CC2)c1 [3/19]
tubulin
  IC50: 1800 nM
HCT116 cells
  IC50: 17 nM

## Cc1cc(C(=O)N2CCN(c3cccc4ccccc34)CC2)n(-c2cccc(F)c2)n1 [3/20]
tubulin
  IC50: 3000 nM
HCT116 cells
  IC50: 1850 nM

## Cc1cc(C(=O)N2CCN(c3cc(Cl)ccc3C)CC2)n(-c2cccc(F)c2)n1 [3/21]
tubulin
  IC50: 1800 nM
HCT116 cells
  IC50: 469 nM

## COc1ccc(Cl)cc1N1CCN(C(=O)c2cc(C)nn2-c2cccc(F)c2)CC1 [3/22]
tubulin
  IC50: 1500 nM
HCT116 cells
  IC50: 46 nM

## Cc1cc(C(=O)N2CCN(c3cccc(C(F)(F)F)c3)CC2)n(-c2ccc(F)cc2)n1 [3/23]
tubulin
  IC50: 3000 nM
HCT116 cells
  IC50: 434 nM

## Cc1cc(C(=O)N2CCN(c3ccc(F)cc3)CC2)n(-c2cccc(Cl)c2)n1 [3/24]
tubulin
  IC50: 5000 nM
HCT116 cells
  IC50: 239 nM

## COc1cccc(N2CCN(C(=O)c3cc(C)nn3-c3cccc(Cl)c3)CC2)c1 [3/25]
tubulin
  IC50: 1800 nM
HCT116 cells
  IC50: 40 nM

## CSc1ccccc1N1CCN(C(=O)c2cc(C)nn2-c2cccc(Cl)c2)CC1 [3/26]
tubulin
  IC50: 1500 nM
HCT116 cells
  IC50: 90 nM

## Cc1ccc(-n2nc(C)cc2C(=O)N2CCN(c3cccc(Cl)c3)CC2)cc1 [3/27]
tubulin
  IC50: 4500 nM
HCT116 cells
  IC50: 217 nM

## Cc1ccc(-n2nc(C)cc2C(=O)N2CCN(c3cccc(C)c3)CC2)cc1 [3/28]
tubulin
  IC50: 7000 nM
HCT116 cells
  IC50: 269 nM

## CCc1ccccc1N1CCN(C(=O)c2cc(C)nn2-c2cccc(C)c2)CC1 [3/29]
tubulin
  IC50: 5000 nM
HCT116 cells
  IC50: 452 nM
